Laboratory results published in US8349851B2, “JAK kinase modulating compounds and methods of use thereof” (Ambit Biosciences Corp., priority 2009, dated 2013).

Tests used:
HEL 92.1.7 cells = assay: In vivo efficacy study in the mouse HELV617F liquid tumor model (survival); details: CB17 SCID mice, PO BID, 21 day dosing; Ambit Internal Compound 50 or 60 mg/kg, compound of Formula I 60 mg/kg, TGEN101348 120 mg/kg
Experimental: In Vivo Efficacy Study in the Mouse HELV617F Liquid Tumor Mouse Model
This study was conducted to determine the effect of a selected compound of Formula I on tumor progression and survival. CB 17 SCID mice (Charles River Labs) were pretreated with cyclophosphamide IP QD at 150 mg/kg for two consecutive days before being injected with cells. On Day 0, 75 mice were inoculated IV with 5e6 HEL 92.1.7 cells suspended in sterile saline. Animals were weighed on Day 8, and assigned to groups with similar mean body weights and similar standard deviations from the mean. Animals were dosed on Day 8 for a 21 day dosing period. Treatment groups were as follows (10 animals per group): First group was administered vehicle (Pharmatek #6), PO, BID; a second group was administered Ambit Internal Compound A prepared in Pharmatek #6, at 50 mg/kg PO, BID; and a third group was administered TGEN101348 prepared in Pharmatek #6, at 120 mg/kg PO, BID. An untreated group of 10 animals also served as control.
Another study was conducted using the same protocol, with the same controls and the following treatment groups: Ambit Internal Compound A prepared in Pharmatek #6 administered at 60 mg/kg BID and a selected compound of Formula I prepared in Pharmatek #6 at 60 mg/kg BID.

TEL-JAK cells = assay: In vivo efficacy study in the mouse TELJAK model (survival); details: CB17 SCID mice, BID for two weeks; Ambit Internal Compound 50 mg/kg BID, TGEN101348 100 mg/kg BID
Experimental: In Vivo Efficacy Study in the Mouse TELJAK Mouse Model
This study was conducted to determine the effect of a selected compound of Formula I on tumor progression and survival. CB17 SCID mice (Harlan Laboratories) were inoculated with 5e5 TEL-JAK cells via tail vein on day 0. Cells were allowed to establish in the animal, and on day 3, dosing was initiated as follows: Vehicle (Pharmatek #6) administered 50 uL at BID to a first group, Ambit Internal Compound prepared in Pharmatek #6 and administered at 50 mg/kg BID to a second group and TGEN101348 prepared in Pharmatek #6 to a third group at 100 mg/kg BID. Each treatment group (16 animals per group) received a twice daily dosing for a two week period. An untreated group of 10 animals also served as control.
A second study was conducted using the same protocol, with the same controls and the following treatment groups: Ambit Internal Compound A prepared in Pharmatek #6 administered at 60 mg/kg BID and a selected compound of Formula I prepared in Pharmatek #6 at 60 mg/kg BID.

[1] = test system: csTF-1 cells (GM-CSFR/JAK2/STAT5 pathway); assay: csTF-1 cell-based reporter assay; design: species or system human; details: Homo sapiens; GM-CSF at 2 ng/mL, 4 hours; read-out: Cell Assay: CS0017: CS TF-1 reporter assay: IC50
Summary of the method: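 GM-CSF-dependent human csTF-1 cells with STAT5-driven beta-lactamase reporter (irf1 element), 2×10^5 cells/well, given serial compound dilutions plus 2 ng/mL GM-CSF in 0.5% DMSO for 4 hours at 30° C. Substrate added 2 h at room temperature; blue (460 nm)/green (530 nm) fluorescence read at 409 nm excitation.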

JAK2 = target: T1, JAK2 (Homo sapiens, UniProt O60674); assay: Competition binding assay, JAK2; details: read-out: Binding Assay: JAK2 (active_KD)
T1 construct: made in house
Summary of the method: (§1)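 JAK2 and JAK3 were each tested individually as T7 phage fusions or HEK-293-expressed DNA-tagged kinases, competing with compound for bead-immobilized biotinylated ligand. Eluted kinase was measured by quantitative PCR. Kd values came from eleven serial threefold dilutions.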

AuroraB = target: T2, AuroraB (Homo sapiens, UniProt Q96GD4); assay: Competition binding assay, Aurora B
T2 construct: made in house
Description: Methods for determining binding constant against Aurora B kinase are known to one of skill in the art. Exemplary methods are described in U.S. provisional application No. 61/294,413, and Fabian et al., Nature Biotechnology 2005, 23,329-336.
Competition binding assays used herein were developed, validated and performed as described in Fabian et al., Nature Biotechnology 2005, 23,329-336. Kinases were produced as fusions to T7 phage (See, Fabian et al. or WO04/015142) or alternatively, the kinases were expressed in HEK-293 cells and subsequently tagged with DNA for PCR detection (See, WO08/005310). For the binding assays, streptavidin-coated magnetic beads were treated with biotinylated affinity ligands for 30 min at rt to generate affinity resins. The liganded beads were blocked with excess biotin and washed with blocking buffer (SeaBlock (Pierce), 1% BSA, 0.05% Tween 20, 1 mM DTT) to remove unbound ligand and to reduce non-specific binding. […] Test compounds were prepared as 100× stocks in DMSO and rapidly diluted into the aqueous environment. DMSO was added to control assays lacking a test compound. Primary screen interactions were performed in polypropylene 384-well plates in a final volume of 34 μL, while Kd determinations were performed in polystyrene 96-well plates in a final volume of 135 μL. […] The kinase concentration in the eluates was measured by quantitative PCR. Each kinase was tested individually against each compound. Kds were determined using eleven serial threefold dilutions. A selectivity score, which is a quantitative measure of selectivity of a compound against a panel of enzymes, may be calculated for a compound by dividing the number of enzymes for which a compound meets a set criteria, (for example, a binding constant of 100 nM or less), by the total number of enzymes tested.

JAK3 = target: T3, JAK3 (Homo sapiens, UniProt P52333); assay: Competition binding assay, JAK3; details: read-out: Binding Assay: JAK3 (active_KD, ENZ)
T3 construct: made in house
Summary of the method: as §1

T2 sequence (Q96GD4 whole entry): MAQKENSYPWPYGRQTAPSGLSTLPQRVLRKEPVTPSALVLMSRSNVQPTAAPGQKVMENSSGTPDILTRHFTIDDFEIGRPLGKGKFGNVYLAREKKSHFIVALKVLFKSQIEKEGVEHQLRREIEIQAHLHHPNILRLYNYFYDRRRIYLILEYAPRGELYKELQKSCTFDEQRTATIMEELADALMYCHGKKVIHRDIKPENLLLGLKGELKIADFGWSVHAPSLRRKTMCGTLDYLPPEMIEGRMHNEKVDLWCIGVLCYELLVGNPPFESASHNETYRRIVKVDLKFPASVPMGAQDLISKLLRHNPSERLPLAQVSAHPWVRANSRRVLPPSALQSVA
T3 sequence (P52333 822-1111 limits assumed): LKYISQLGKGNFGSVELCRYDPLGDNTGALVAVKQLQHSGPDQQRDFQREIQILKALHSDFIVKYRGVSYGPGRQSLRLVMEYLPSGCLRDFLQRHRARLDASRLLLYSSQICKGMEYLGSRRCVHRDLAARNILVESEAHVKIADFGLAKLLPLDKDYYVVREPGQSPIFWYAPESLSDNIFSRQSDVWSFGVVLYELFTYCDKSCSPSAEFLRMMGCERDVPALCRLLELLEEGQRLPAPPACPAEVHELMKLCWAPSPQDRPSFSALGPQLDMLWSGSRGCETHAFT
T1 sequence (O60674 849-1124 limits assumed): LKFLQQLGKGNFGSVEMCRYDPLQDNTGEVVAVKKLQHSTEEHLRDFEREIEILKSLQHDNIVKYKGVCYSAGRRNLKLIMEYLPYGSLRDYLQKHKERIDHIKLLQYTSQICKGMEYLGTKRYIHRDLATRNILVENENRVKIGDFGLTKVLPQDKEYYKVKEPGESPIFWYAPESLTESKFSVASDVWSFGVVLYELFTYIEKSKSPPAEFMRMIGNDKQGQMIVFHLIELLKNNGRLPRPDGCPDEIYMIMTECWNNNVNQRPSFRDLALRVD

IC50 [1] | Kd (JAK2) | Kd (AuroraB) | Kd (JAK3) | SMILES | increased life span (ILS) (HEL 92.1.7 cells) | increased life span (ILS) (TEL-JAK cells)
 |  |  |  | Cc1cnc(Nc2ccc(OCCN3CCCC3)cc2)nc1Nc1cccc(S(=O)(=O)NC(C)(C)C)c1 [TGEN101348] | approximately 5% | 30%
≤ 0.1 µM | ≤ 0.001 µM | > 0.2 µM | ≤ 0.01 µM | Cc1cc(Nc2nc(C(F)(F)c3ccc(F)cc3)nc3cc(CS(C)(=O)=O)ccc23)n[nH]1 [Example 50, 2-(difluoro(4-fluorophenyl)methyl)-N-(5-methyl-1H-pyrazol-3-yl)-7-(methylsulfonylmethyl)quinazolin-4-amine] |  | 
≤ 0.1 µM | ≤ 0.001 µM | > 0.2 µM | ≤ 0.01 µM | Cc1ccc2c(Nc3cc(C)[nH]n3)nc(C(F)(F)c3ccc(F)cc3)nc2c1 [Example 26, 2-(difluoro(4-fluorophenyl)methyl)-7-methyl-N-(5-methyl-1H-pyrazol-3-yl)quinazolin-4-amine] |  | 
0.1 to 0.5 µM | ≤ 0.001 µM | > 0.2 µM | 0.01 to 0.1 µM | COC(=O)NC(c1ccc(F)cc1)c1nc(Nc2cc(C)[nH]n2)c2ccccc2n1 (racemic) [Example 45, (R,S)-methyl (4-fluorophenyl)(4-(5-methyl-4H-pyrazol-3-ylamino)quinazolin-2-yl) methylcarbamate] |  | 
≤ 0.1 µM | ≤ 0.001 µM | > 0.2 µM | ≤ 0.01 µM | Cc1cc(Nc2nc(C(O)c3ccc(F)cc3)nc3cc(OCCO)ccc23)n[nH]1 (racemic) [Example 39, (R,S)-2-(2-((4-fluorophenyl)(hydroxy)methyl)-4-(5-methyl-1H-pyrazol-3-ylamino)quinazolin-7-yloxy)ethanol] |  | 
